Experimental data published in ChEMBL document CHEMBL1154581, “Polyhydroxylated sterols from the octocoral Dendronephthya gigantea” (J Nat Prod, 2000).
Values after ≈ are worked out from the molar mass of the structure shown.

System: L1210
Experiment: Cytotoxicity against mouse L1210 cells
Type: functional, cell-based

CC(=O)OC[C@]12CC[C@H]3[C@@H](C[C@@H](O)[C@@]4(O)C[C@@H](O)CC[C@]34C)[C@@H]1[C@H](O)C[C@@H]2[C@H](C)CCCC(C)C [DENDRONESTEROL B]
IC50: 5.2 µg/mL (≈ 10.5 µM)
